Results from article PMC6591174, “The beneficial androgenic action of steroidal aromatase inactivators in estrogen-dependent breast cancer after failure of nonsteroidal drugs” (Cell Death & Disease, 2019).

Key:
[1] = tested on: DMBA-induced mammary carcinoma; test: DMBA-induced mammary carcinoma, topical treatment; assay type: in vivo, female Sprague-Dawley rats; details: cream 2.5% topically twice daily; for tumor growth: 4 weeks, ovariectomized rats given E2 1 μg/rat daily; for average tumor number after 28 days of treatment: 1.2 ± 0.15 at the beginning, control 4.3 ± 1.2
Protocol: Fig. 8 The effects of sterols on the DMBA-induced mammary carcinoma in rats. At an age of 50–54 days, female Sprague-Dawley rats were dosed intragastrically with 20 mg DMBA. when at least one tumor measuring 1 cm in diameter was found, the rats were ovariectomized and given intramuscular 1 μg/rat E2 daily. Animals were selected for experiments when at least one tumor per rat had reached a diameter of 1.5 cm. The skin covering the tumor was shaved and animals were divided into four groups. […] Untreated tumors served as controls. a Representative images of the tumors. b Tumor growth curve. c Average number of tumor nodules before and after treatment.The data represent six sets of independent experiments and are shown as the means ± SD. *P < 0.05, **P ≤ 0.01 vs. control group
At an age of 50–54 days, female Sprague-Dawley rats were dosed intragastrically with 20 mg DMBA (Sigma Chemical Co.) dissolved in peanut oil (1 ml/rat). Starting at 40 days after DMBA treatment, animals were examined weekly by palpation; when at least one tumor measuring 1 cm in diameter was found, the rats were ovariectomized using ether anesthesia and were given E2 (1 μg/rat) by daily intramuscular injection. Animals were selected for experiments when at least one tumor per rat had reached a diameter of 1.5 cm. Tumors were measured with calipers once a week, and their volume was calculated according to the following formula: volume = length × (width)^2 × 0.5. Rats were then divided into four groups of six animals each. […] All creams were applied for 4 weeks. […] Tumor growth in the control and treated groups was expressed as a value relative to the initial tumor volume, measured on the 1st day of treatment and taken as 1. At the beginning and end of the treatment period, the number of tumor nodules was counted.

[2] = tested on: ZR-75-1 cells; test: Cell proliferation assay (CCK8), ZR-75-1; assay type: cell-based, human; details: for proliferation of ZR-75-1 cells: 1 nM-10 μM, 6 days, 10% PRF-CT with 1 nM E2; for antiproliferative effect in presence of OH-Flutamide, ZR-75-1: 100 nM compound with 100 nM OH-Flutamide
Protocol: (§1) Fig. 2 Proliferative response of cancer cells to indicated compounds. a–c the effect of concentrations of different compounds on the growth of the cells. […] Cell growth was measured as described in the “Materials and methods”. The proliferation of cells is expressed as the ratio of the cells compared with the control wells (untreated cells). d, e Influence of different compounds on the cell cycle of MCF-7 cells. MCF-7 cells were cultured in 10% PRF-CT with E2 (1 nM) for 3 days before plating. Cells were seeded in six-well plates and, the next day, starved in PRF for 24 h. Cells were exposed to different compounds at a concentration of 100 nM for 72 h, and then subjected to cell-cycle analysis as described in “Materials and methods”. f MCF-7 cells on poly-L-lysine-coated glass coverslips were exposed to compounds (100 nM) in 10% PRF-CT with 1 nM E2 for 72 h. Control cells were treated with vehicle. DAPI stains DNA, and the secondary anti-mouse antibody to detect the antibody bound to Ki-67 is labeled with the cyanine dye Cy3. The cells were stained with DAPI (blue). Immunofluorescence staining of Ki-67 of cells was observed using fluorescence microscope. Red: Ki-67; blue: nucleus.Typical image is shown. Scale bars: 10 μm. Data represent a mean ± SEM of three independent experiments, each in triplicate; bars, SEM. *P ≤ 0.05 vs. control
(§2) After 24 h, cells were exposed for 3–6 days to various concentrations of compounds (1 nM– 10 μM) or left untreated. The incubation time and the compounds concentrations were chosen based on previous studies[17],[32]–[34]. The effects of the various drugs on cell proliferation at the indicated concentrations (1 nM– 10 μM) were determined by using a CCK8 kit (Dojindo Laboratories, Kumamoto, Japan) according to the manufacturer’s protocol. The absorbance at 450 nm was measured by using a Versamax microplate reader (Thermo Varioskan Flash, USA). Cell growth is expressed as the ratio of the cells compared with the control wells (untreated cells).

[3] = tested on: MCF-7 cells; test: Cell proliferation assay (CCK8), MCF-7; assay type: cell-based, human; details: for proliferation of MCF-7 cells: 1 nM-10 μM, 6 days, 10% PRF-CT with 1 nM E2; for antiproliferative effect in presence of OH-Flutamide, MCF-7: 100 nM compound with 100 nM OH-Flutamide
Protocol: as §1, §2

[4] = tested on: MCF-7 cells (AR siRNA); test: Proliferation of MCF-7 cells after AR downregulation by siRNA; assay type: cell-based, human; details: 100 nM, 72 h
Protocol: Cells were cultured and treated as described in the legend of Fig. 2. […] Cell growth is expressed as the ratio of the number of cells in the experimental well to that in control wells (untreated cells). The columns represent the mean of three experiments, each with five replicates; bars, SEM. *P ≤ 0.05, **P ≤ 0.01 vs. control
AR siRNA and its control siRNA used in this study were described by Wu et al.. The sequence of the AR siRNA used was 5′-[…]-3′ and a nonspecific siRNA duplex was used as a negative control. Growing cells were switched to PRF for 24 h and then switched to 10% PRF–CT medium containing 1 nM E2 for 48 h. MCF-7 cells were trypsinized and transfected in suspension with 2.5 μg siRNA (siAR or scrambled siRNA) or pcDNA3.1-AR in six-well plates, using Lipofectamine 3000 (Invitrogen) in OPTI-MEM medium (Gibco), following the manufacturer’s instructions.

C[C@]12CCC(=O)C[C@@H]1CC[C@@H]1[C@@H]2CC[C@]2(C)[C@@H](O)CC[C@@H]12 [DHT, dihydrotestosterone]
tumor growth [1]: growth arrest
average tumor number after 28 days of treatment [1]: 2.25 ± 0.8 tumors per rat
proliferation of ZR-75-1 cells [2]: inhibits the proliferation of MCF-7 and ZR-75-1 cells at all tested concentrations
antiproliferative effect in presence of OH-Flutamide, ZR-75-1 [2]: almost completely abolished
proliferation of MCF-7 cells [3]: inhibits the proliferation of MCF-7 and ZR-75-1 cells at all tested concentrations
antiproliferative effect in presence of OH-Flutamide, MCF-7 [3]: almost completely abolished
inhibition of proliferation after AR downregulation [4]: AR downregulation diminishes the ability

C[C@]12CC[C@H]3[C@@H](CCC4=C(O)C(=O)CC[C@@]43C)[C@@H]1CC[C@@H]2O [4-OHT, 4-hydroxytestosterone]
tumor growth [1]: shrinkage of the tumor
appearance of new tumors at end of treatment ([1]; 28 days, vs control): almost did not develop new tumors
average tumor number after 28 days of treatment [1]: 1.6 ± 0.4 tumors per rat
proliferation of ZR-75-1 cells [2]: inhibits the proliferation of ZR-75-1 cells only at micromolar concentrations
antiproliferative effect in presence of OH-Flutamide, ZR-75-1 [2]: behave like DHT
proliferation of MCF-7 cells [3]: strongly antiproliferative
antiproliferative effect in presence of OH-Flutamide, MCF-7 [3]: behave like DHT
inhibition of proliferation after AR downregulation [4]: identical results

C=C1C[C@H]2[C@@H]3CC[C@H](O)[C@@]3(C)CC[C@@H]2[C@@]2(C)C=CC(=O)C=C12 [17-HEXE, 17-hydroexemestane]
tumor growth [1]: growth arrest
average tumor number after 28 days of treatment [1]: 2.85 ± 0.68 tumors per rat
antiproliferative effect in presence of OH-Flutamide, ZR-75-1 [2]: behave like DHT
antiproliferative effect in presence of OH-Flutamide, MCF-7 [3]: behave like DHT
inhibition of proliferation after AR downregulation [4]: identical results
